What is called EC50 is the concentration that produces a half-maximal response. A word on the Ki: it is a measure of affinity in units of concentration, obtained from inhibition or displacement.

The values below come from US8252793B2, “Bradykinin receptor agonists and uses thereof to treat ocular hypertension and glaucoma” (Alcon Research, Ltd., priority 2010, dated 2012).

Experiment [1] concerns the target T1, BK receptors in human ciliary muscle cells (h-CM) (Homo sapiens, UniProt P30411).
T1 construct: h-CM cells expressing BK receptors were seeded; endogenous in cells; host or cells: human ciliary muscle (h-CM) cells
T1 sequence (P30411 1-391): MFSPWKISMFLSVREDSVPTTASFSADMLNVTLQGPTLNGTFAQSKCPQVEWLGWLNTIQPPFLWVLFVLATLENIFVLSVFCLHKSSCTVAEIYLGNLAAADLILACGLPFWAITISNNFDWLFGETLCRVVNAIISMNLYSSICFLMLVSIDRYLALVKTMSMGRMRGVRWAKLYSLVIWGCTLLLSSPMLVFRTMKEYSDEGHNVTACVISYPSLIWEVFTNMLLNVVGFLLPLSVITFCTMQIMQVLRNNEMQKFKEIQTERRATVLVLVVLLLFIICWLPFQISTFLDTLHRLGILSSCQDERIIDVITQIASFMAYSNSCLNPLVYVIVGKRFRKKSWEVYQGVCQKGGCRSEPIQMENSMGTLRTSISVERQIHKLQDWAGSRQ
As to the kind of experiment: Functional assay measuring [Ca2+]i mobilization (FLIPR) in h-CM cells. Particulars: class symbols (in μM), read-out: CaM (EC50). The class given is cell-based. On the procedure: On the day of the experiment, media was removed, cells were rinsed and 50 μL of serum-free media added. One vial of FLIPR Calcium Assay Kit dye was reconstituted in 50 mL of a FLIPR buffer consisting of Hank's Balanced Salt Solution (HBSS), 20 mM HEPES, and 2.5 mM probenecid, pH 7.4. Cells were loaded with the calcium-sensitive dye by addition of an equal volume (50 μL) to each well of the 96-well plate and incubated with dye for 1 h at 23° C. […] After this time, the test compound plate and cell plate were placed in a Fluorescence Imaging Plate Reader (FLIPR-Tetra®) instrument (Molecular Devices/MDSPharma, Sunnyvale, Calif.). At the beginning of an experimental run, a signal test was performed to check the basal fluorescence signal from the dye-loaded cells and the uniformity of the signal across the plate. […] An aliquot (25 μL) of the test compound was added to the existing 100 μL dye-loaded cells at a dispensing speed of 50 μL/sec. Intracellular calcium mobilization was measured by monitoring real-time changes in cellular fluorescence upon test compound addition. Fluorescence data were collected in real-time at 1.0 sec intervals for the first 60 seconds and at 6.0 second intervals for an additional 120 seconds. Baseline fluorescence readings were normalized across the plate and background-corrected from negative control wells. […] EC50 values were determined by 4-parameter nonlinear curve fitting of the concentration-response curve. Calibration of the instrument was performed using manufacturer's standard procedures.

Experiment [2] deals with T2, recombinant human bradykinin B2 receptor (Homo sapiens, UniProt P30411).
T2 construct: expressed in transfected cells; host or cells: Chinese hamster ovary (CHO) cells, membrane homogenates
T2 sequence (P30411 1-391): T1 sequence (P30411 1-391)
Briefly: [3H]-BK competition radioligand binding to human cloned B2 receptor (CHO cell membranes). As to the method:
Chinese hamster ovary (CHO) cell membrane homogenates (2.5 μg protein) expressing the recombinant human bradykinin B2 receptor were incubated for 60 min at 23° C. with 0.2 nM [^3H]-bradykinin (95.5 Ci/mmole, PerkinElmer) in the absence or presence of the test compound in a buffer containing 50 mM Tris/HCl (pH 7.4), 0.2 g/L 1-10-phenanthroline and 0.1% BSA. All reagent and test compound additions to the assay plates were made using Biomek 3000 robotic workstations (Beckman Instruments, Fullerton, Calif.). Nonspecific binding was determined in the presence of 1 μM unlabeled bradykinin. Following the incubation, the assay was terminated by rapid filtration under vacuum through glass fiber filters (GF/C, PerkinElmer) presoaked with 0.3% polyethyleneimine and rinsed several times with an ice-cold 50 mM Tris-HCl buffer using a 96-sample cell harvester (Tomtec). The filters were air-dried and the radioactivity counted in a beta-scintillation counter (Topcount, PerkinElmer) using a scintillation cocktail (Microscint 20, PerkinElmer) (Sharif and Whiting, Neurochem. Int. 18: 89-96, 1991). Competitive binding inhibition curves were generated using a 7-point concentration—response of test compound in duplicate. Bradykinin peptide was also tested as an internal control in the assay. The data were analyzed using nonlinear, iterative curve-fitting to obtain the potency and intrinsic activities of the test agents as previously described (Sharif et al. J. Pharmacol. Exp. Ther. 286: 1094-1102, 1998; Sharif et al. Invest Ophthalmol. Vis. Sci. 39:2562-2571, 1998; Kelly et al. J. Pharmacol. Exp. Ther. 304: 238-245, 2003). Determined IC50 values were converted to Ki values using the standard Cheng-Prusoff equation.

Where [3] appears, read: 0.2 nM [3H]-bradykinin, CHO membranes, 60 min 23° C., mean ± SEM or single value, Ki from IC50 by Cheng-Prusoff, read-out: [3H]-BK Binding to Human Cloned B2 Receptor (Ki).
Where [4] appears, read: same assay as E1, given as class symbols (in μM), read-out: [3H]-BK Binding to Human Cloned B2 Receptor (Ki, nM), class symbols.

Like-named read-outs stand apart in the source and are kept apart here.

For the compound `CCc1nc2c(OCc3c(C)ccc(N(C)C(=O)CNC(=O)CCN4CCN(C(=O)NC)CC4)c3C)cccc2n1Cc1ccccn1` [Compound 60], the EC50 in experiment [1] lay within 0.1 to 1 µM.

Regarding “4-((2-((2-((3-(((2-methoxy-1-(pyridin-2-ylmethyl)-1H-benzo[d]imidazol-4-yl)oxy)methyl)-2,4-dimethylphenyl)(methyl)amino)-2-oxoethyl)amino)-2-oxoethyl)amino)-N-methylpiperidine-1-carboxamide [Compound 21]”, the Ki is 0.881 ± 0.263 µM in experiment [2] (setting [3]) and 0.1 to 1 µM in experiment [2] (setting [4]). Besides, the EC50 in experiment [1] lay in the range of 0.1 to 1 µM.

For `COc1nc2c(OCc3c(Cl)ccc(N(C)C(=O)CNC(=O)CCN4CCN(C(=O)N(C)C)CC4)c3Cl)cccc2n1Cc1ccccn1` [Compound 17], the Ki in experiment [2] (setting [3]) worked out at 0.274 ± 0.069 µM. The EC50 in experiment [1] lay within 0.1 to 1 µM.

With `CCc1nc2c(OCc3c(Cl)ccc(N(C)C(=O)CNC(=O)CCN4CCN(C(=O)NC)CC4)c3Cl)cccn2c1C(O)c1ccccn1` (centres unmarked) [Compound 26], in experiment [2] (setting [3]), the Ki was 2.14 ± 0.223 µM. Moreover, the EC50 in experiment [1] lay within 0.1 to 1 µM.

For `CNC(=O)C1CCN(CC(=O)NCC(=O)N(C)c2ccc(C)c(COc3cccc4c3nc(OC)n4Cc3ccccn3)c2C)CC1` [Compound 52], in experiment [2] (setting [3]), the Ki is 0.0157 µM. Further, the EC50 in experiment [1] is 0.1 to 1 µM.

`COc1nc2c(OCc3c(Cl)ccc(N(C)C(=O)CNC(=O)CN4CCOCC4)c3Cl)cccc2n1Cc1ccccn1` [Compound 14, N-(2,4-dichloro-3-(((2-methoxy-1-(pyridin-2-ylmethyl)-1H-benzo[d]imidazol-4-yl)oxy)methyl)phenyl)-N-methyl-2-(2-morpholinoacetamido)acetamide]: the Ki in experiment [2] (setting [3]) is 0.197 µM. In experiment [1], the EC50 lay within 0.1 to 1 µM.

Consider “3-(4-acetylpiperazin-1-yl)-N-(2-((2,4-dichloro-3-(((2-methoxy-1-(pyridin-2-ylmethyl)-1H-benzo[d]imidazol-4-yl)oxy)methyl)phenyl)(methyl)amino)-2-oxoethyl)propanamide [Compound 16]”, for which the results for the Ki in experiment [2] (setting [3]) and in experiment [2] (setting [4]) were 0.985 ± 0.473 µM and 0.1 to 1 µM, respectively. For the same compound, in experiment [1], the EC50 lay within 0.1 to 1 µM.

On to `COc1nc2c(OCc3c(Cl)ccc(N(C)C(=O)CNC(=O)CCc4ccc(NS(C)(=O)=O)nc4)c3Cl)cccc2n1Cc1ccccn1` [Compound 5, N-(2-((2,4-dichloro-3-(((2-methoxy-1-(pyridin-2-ylmethyl)-1H-benzo[d]imidazol-4-yl)oxy)methyl)phenyl)(methyl)amino)-2-oxoethyl)-3-(6-(methylsulfonamido)pyridin-3-yl)propanamide], for which the Ki in experiment [2] (setting [3]) is 0.071 ± 0.03 µM. Moreover, the EC50 in experiment [1] lay in the range of 0.1 to 1 µM.

`COc1nc2c(OCc3c(Cl)ccc(N(C)C(=O)CNC(=O)CN4CCC(NC(C)=O)CC4)c3Cl)cccc2n1Cc1ccccn1` [Compound 15, 2-(2-(4-acetamidopiperidin-1-yl)acetamido)-N-(2,4-dichloro-3-(((2-methoxy-1-(pyridin-2-ylmethyl)-1H-benzo[d]imidazol-4-yl)oxy)methyl)phenyl)-N-methylacetamide]: in experiment [2] (setting [3]), the Ki is 0.467 µM. Besides, in experiment [1], the EC50 lay in the range of 0.1 to 1 µM.

Take `COC(=O)Nc1ccc(CCC(=O)NCC(=O)N(C)c2ccc(C)c(COc3cccc4c3nc(OC)n4Cc3ccccn3)c2C)cn1` [Compound 6]: the Ki in experiment [2] (setting [3]) is 0.01 ± 0.002 µM; in experiment [2] (setting [4]), less than 0.1 µM. Besides, the half-maximal effective concentration (EC50) in experiment [1] was less than 0.1 µM.

As to `CCc1nc2c(OCc3c(Cl)ccc(N(C)C(=O)CNC(=O)CNC4CCN(C(=O)NC)CC4)c3Cl)cccn2c1C(O)c1ccccn1` (centres unmarked) [Compound 23], the Ki in experiment [2] (setting [3]) turned out to be 1.73 ± 0.428 µM. The EC50 in experiment [1] was more than 1 µM.

For the compound `CSCC[C@H](N)C(=O)N[C@@H](CCCCN)C(=O)N[C@@H](CCCNC(=N)N)C(=O)N1CCC[C@H]1C(=O)N1CCC[C@H]1C(=O)NCC(=O)N[C@@H](Cc1ccccc1)C(=O)N[C@@H](CO)C(=O)N1CCC[C@H]1C(=O)N[C@@H](Cc1ccccc1)C(=O)N[C@@H](CCCNC(=N)N)C(=O)O` [Met-Lys-BK, reference compound], the Ki in experiment [2] (setting [4]) was less than 0.1 µM.

As for `COc1nc2c(OCc3c(Cl)ccc(N(C)C(=O)CNC(=O)CCN4CCNCC4)c3Cl)cccc2n1Cc1ccccn1` [Compound 58], the Ki in experiment [2] (setting [3]) was 3.15 µM. Further, in experiment [1], the EC50 was more than 1 µM.

In the case of `COc1nc2c(OCc3c(C)ccc(N(C)C(=O)CNC(=O)CN4CCC(NC(C)=O)CC4)c3C)cccc2n1Cc1ccccn1` [Compound 51], in experiment [2] (setting [3]), the Ki is 0.701 µM. The EC50 in experiment [1] is 0.1 to 1 µM.

In the case of `COC(=O)N1CCN(CCC(=O)NCC(=O)N(C)c2ccc(Cl)c(COc3cccc4c3nc(OC)n4Cc3ccccn3)c2Cl)CC1` [Compound 18], the Ki in experiment [2] (setting [3]) came to 0.239 ± 0.15 µM. For the same compound, the EC50 in experiment [1] was in the range of 0.1 to 1 µM.

As to `N=C(N)NCCC[C@H](NC(=O)[C@H](Cc1ccccc1)NC(=O)[C@@H]1CCCN1C(=O)[C@H](CO)NC(=O)[C@H](Cc1ccccc1)NC(=O)CNC(=O)[C@@H]1C[C@@H](O)CN1C(=O)[C@@H]1CCCN1C(=O)[C@@H](N)CCCNC(=N)N)C(=O)O` [Hyp^3-BK, reference compound], the Ki in experiment [2] is 0.0019 ± 0.0011 µM; in experiment [2] ([3H]-BK Binding to Human Cloned B2 Receptor (Ki, nM), class symbols, same assay as E1, given as class symbols (in μM)), less than 0.1 µM.

As to `COc1nc2c(OCc3c(Cl)ccc(N(C)C(=O)CNC(=O)CCN4CCOCC4)c3Cl)cccc2n1Cc1ccccn1` [Compound 54], the Ki in experiment [2] (setting [3]) came to 0.455 µM. Moreover, the EC50 in experiment [1] lay within 0.1 to 1 µM.

Consider `CC(=O)Nc1ccc(CC(=O)NCC(=O)N(C)c2ccc(Cl)c(COc3cccc4c(OCc5ccccn5)cc(C)nc34)c2Cl)cc1` [Compound 50], for which the Ki in experiment [2] (setting [3]) was determined as 0.015 µM. For the same compound, the EC50 in experiment [1] lay in the range of 0.1 to 1 µM.

Turning to `CCc1nc2c(OCc3c(Cl)ccc(N(C)C(=O)CNC(=O)CCN4CCN(C(=O)NC)CC4)c3Cl)cccn2c1C(O)c1ccccn1` (centres unmarked) [Compound 59], in experiment [2] (setting [3]), the Ki is 2.14 µM. In experiment [1], the EC50 was in the range of 0.1 to 1 µM.

For `NCCCC[C@H](N)C(=O)N[C@@H](CCCN=C(N)N)C(=O)N1CCC[C@H]1C(=O)N1CCC[C@H]1C(=O)NCC(=O)N[C@@H](Cc1ccccc1)C(=O)N[C@@H](CO)C(=O)N1CCC[C@H]1C(=O)N[C@@H](Cc1ccccc1)C(=O)N[C@@H](CCCN=C(N)N)C(=O)O` [Lys-BK, reference compound], the Ki in experiment [2] (setting [4]) was less than 0.1 µM.

`COc1nc2c(OCc3c(Cl)ccc(N(C)C(=O)CNC(=O)CCCN4CCN(C(C)=O)CC4)c3Cl)cccc2n1Cc1ccccn1` [Compound 55]: the Ki in experiment [2] (setting [3]) came to 0.984 µM. Also, in experiment [1], the EC50 was in the range of 0.1 to 1 µM.

As to `CNC(=O)CN1CCN(CC(=O)NCC(=O)N(C)c2ccc(Cl)c(COc3cccc4c3nc(OC)n4Cc3ccccn3)c2Cl)CC1` [Compound 53], the Ki in experiment [2] (setting [3]) was found to be 0.34 µM. Moreover, in experiment [1], the EC50 is 0.1 to 1 µM.
